Assay results reported in US9265738B2, “Small molecule CMKLR1 antagonists in demyelinating disease” (The Board of Trustees of the Leland Stanford Junior …, priority 2012, dated 2016).

Assays:
mouse CMKLR1 = target: T1, mouse CMKLR1 (Mus musculus, UniProt P97468); test: Inhibition of chemerin-triggered mouse CMKLR1/L1.2 cell migration; assay type: cell-based; conditions: 1 nM chemerin
T1 construct: expressed in transfected cells; host or cells: L1.2 cells
T1 sequence (P97468 1-371): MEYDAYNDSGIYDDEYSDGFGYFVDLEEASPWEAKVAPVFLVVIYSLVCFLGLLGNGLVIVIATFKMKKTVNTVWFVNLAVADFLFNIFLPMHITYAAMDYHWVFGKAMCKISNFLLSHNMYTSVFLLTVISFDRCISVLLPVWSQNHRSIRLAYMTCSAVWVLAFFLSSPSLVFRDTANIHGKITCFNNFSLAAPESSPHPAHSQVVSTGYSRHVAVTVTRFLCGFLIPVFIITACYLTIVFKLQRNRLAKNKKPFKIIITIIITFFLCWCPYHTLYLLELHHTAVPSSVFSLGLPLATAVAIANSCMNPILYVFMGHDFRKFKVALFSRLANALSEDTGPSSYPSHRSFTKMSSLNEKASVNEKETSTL
Procedure: 2-(alpha-Naphthoyl)ethyltrimethyl ammonium iodide (aNETA) was tested for inhibition of chemerin-triggered mouse CMKLR1/L1.2 cell migration. mCMKLR1/L1.2 ctx and 1 nM chemerin were used. The assay was performed in 0.5% BSA, buffer (10% FBS), or 100% human serum.

CXCR4 [1] = target: T2, CXCR4 (Homo sapiens, UniProt P61073); test: CXCR4-dependent MOLT-4 migration to CXCL12; assay type: cell-based; conditions: MOLT4 human T-cell line; 1 nM CXCL12
T2 construct: endogenous in cells; host or cells: MOLT-4 (human T-cell line)
Procedure: MOLT4 cell ctx (human T-cell line) and 1 nM CXCL12 were used.

CCR9 = target: T3, CCR9 (Homo sapiens, UniProt P51686); test: CCR9-dependent MOLT-4 migration to CCL25; assay type: cell-based; conditions: MOLT4 human T-cell line; 250 nM TECK
T3 construct: endogenous in cells; host or cells: MOLT-4 (human T-cell line)
T3 sequence (P51686 1-369): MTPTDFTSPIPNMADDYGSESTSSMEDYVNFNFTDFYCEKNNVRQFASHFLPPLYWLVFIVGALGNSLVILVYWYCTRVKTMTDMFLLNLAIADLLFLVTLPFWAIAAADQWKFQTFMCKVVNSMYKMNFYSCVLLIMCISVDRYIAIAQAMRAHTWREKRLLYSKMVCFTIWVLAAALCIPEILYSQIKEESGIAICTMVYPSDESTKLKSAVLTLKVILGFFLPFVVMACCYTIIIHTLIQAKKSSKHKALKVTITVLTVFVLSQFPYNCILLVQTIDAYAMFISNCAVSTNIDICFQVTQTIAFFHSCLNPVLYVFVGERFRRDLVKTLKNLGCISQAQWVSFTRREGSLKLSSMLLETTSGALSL
Procedure: MOLT4 cell ctx (human T-cell line) and 250 nM TECK were used.

CXCR4 [2] = target: T4, CXCR4 (Mus musculus, UniProt P70658); test: CXCR4-dependent mouse splenocyte migration to CXCL12; assay type: cell-based; conditions: 100 nM CXCL12
T4 construct: endogenous in cells; host or cells: mouse splenocytes
Procedure: Splenocyte ctx and 100 nM CXCL12 were used.

CCR7 = target: T5, CCR7 (Mus musculus, UniProt P47774); test: CCR7-dependent mouse splenocyte migration to CCL19; assay type: cell-based; conditions: 100 nM CCL19
T5 construct: endogenous in cells; host or cells: mouse splenocytes
T5 sequence (P47774 25-378): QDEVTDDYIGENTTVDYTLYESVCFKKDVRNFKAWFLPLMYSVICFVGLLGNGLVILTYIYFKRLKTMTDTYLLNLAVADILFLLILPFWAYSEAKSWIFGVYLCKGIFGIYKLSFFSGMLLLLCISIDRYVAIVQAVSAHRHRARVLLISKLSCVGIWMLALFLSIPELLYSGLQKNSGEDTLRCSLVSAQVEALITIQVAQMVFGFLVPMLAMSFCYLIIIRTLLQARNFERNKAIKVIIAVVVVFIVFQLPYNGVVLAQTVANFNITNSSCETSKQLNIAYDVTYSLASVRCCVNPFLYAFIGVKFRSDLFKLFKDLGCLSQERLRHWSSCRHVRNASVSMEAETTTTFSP
Procedure: Splenocyte ctx and 100 nM CCL19 were used.

FPR = target: T6, FPR (Mus musculus, UniProt P33766); test: FPR-dependent mouse BM neutrophil chemotaxis to fMLP; assay type: cell-based; conditions: 100 nM fMLP
T6 construct: endogenous in cells; host or cells: mouse bone-marrow neutrophils
T6 sequence (P33766 1-364): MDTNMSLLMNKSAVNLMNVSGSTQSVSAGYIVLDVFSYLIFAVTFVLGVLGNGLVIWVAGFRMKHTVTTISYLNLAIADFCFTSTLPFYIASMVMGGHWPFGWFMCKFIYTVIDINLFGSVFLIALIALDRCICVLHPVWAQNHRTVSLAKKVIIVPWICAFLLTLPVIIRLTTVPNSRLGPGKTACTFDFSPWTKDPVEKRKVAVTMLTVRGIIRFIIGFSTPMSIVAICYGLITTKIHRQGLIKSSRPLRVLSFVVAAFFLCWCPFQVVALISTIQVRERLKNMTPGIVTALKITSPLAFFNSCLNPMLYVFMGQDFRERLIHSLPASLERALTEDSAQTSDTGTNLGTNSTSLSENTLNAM
Procedure: Neutrophil ctx and 100 nM fMLP were used.

C5aR = target: T7, C5aR (Mus musculus, UniProt P30993); test: C5aR-dependent mouse BM neutrophil chemotaxis to C5a; assay type: cell-based; conditions: 100 nM C5a
T7 construct: endogenous in cells; host or cells: mouse bone-marrow neutrophils
T7 sequence (P30993 1-351): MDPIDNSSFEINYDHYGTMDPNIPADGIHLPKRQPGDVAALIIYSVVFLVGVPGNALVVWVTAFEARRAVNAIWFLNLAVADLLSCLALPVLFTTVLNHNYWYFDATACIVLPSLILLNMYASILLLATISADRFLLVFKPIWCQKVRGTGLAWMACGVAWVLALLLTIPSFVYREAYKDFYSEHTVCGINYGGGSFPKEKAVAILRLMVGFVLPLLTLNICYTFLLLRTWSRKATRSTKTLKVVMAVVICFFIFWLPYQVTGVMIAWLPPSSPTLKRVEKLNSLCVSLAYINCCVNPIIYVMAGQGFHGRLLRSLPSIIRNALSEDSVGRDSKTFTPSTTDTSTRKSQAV
Procedure: Neutrophil ctx and 100 nM C5a were used.

[3] = test system: huCMKLR1/βARR CHO, huCMKLR1/L1.2 cell lines and splenocytes; test: In vitro cytotoxicity, annexin V FITC / propidium iodide assay; assay type: cell-based; conditions: 90 minute incubation at 37° C., huCMKLR1/L1.2, splenocytes
Procedure: The in vitro cytotoxicity of aNETA can be determined with an annexin V FITC assay kit. […] The analysis can be performed with a FITC-conjugated annexin-V, which has a strong affinity for extracellular phosphatidylserines, and the fluorescent intercalating agent propidium iodide (PI).
With reference to FIG. 11, cell lines (huCMKLR1/βARR CHO and huCMKLR1/L1.2) and splenocytes were used. aNETA was tested with 90 minute incubation at 37° C.

[4] = test system: experimental autoimmune encephalomyelitis (EAE); test: Clinical EAE in vivo (MOG 35-55 induced); conditions: mouse; for Onset of EAE / Animals that developed EAE (disease incidence): subcutaneous; for Onset of EAE: 10% captisol
[5] = test system: leukocyte infiltration of CNS in EAE; test: Leukocyte infiltration of CNS in EAE; assay type: in vivo, mouse; conditions: EAE mice
huCMKLR1 [6] = target: T8, huCMKLR1 (Homo sapiens, UniProt Q99788); test: Inhibition of chemerin-triggered huCMKLR1 association with beta-arrestin2 (PathHunter CHO-K1 enzyme fragment complementation); assay type: cell-based; set-up: host or cells: CHO-K1
T8 sequence (Q99788 1-373): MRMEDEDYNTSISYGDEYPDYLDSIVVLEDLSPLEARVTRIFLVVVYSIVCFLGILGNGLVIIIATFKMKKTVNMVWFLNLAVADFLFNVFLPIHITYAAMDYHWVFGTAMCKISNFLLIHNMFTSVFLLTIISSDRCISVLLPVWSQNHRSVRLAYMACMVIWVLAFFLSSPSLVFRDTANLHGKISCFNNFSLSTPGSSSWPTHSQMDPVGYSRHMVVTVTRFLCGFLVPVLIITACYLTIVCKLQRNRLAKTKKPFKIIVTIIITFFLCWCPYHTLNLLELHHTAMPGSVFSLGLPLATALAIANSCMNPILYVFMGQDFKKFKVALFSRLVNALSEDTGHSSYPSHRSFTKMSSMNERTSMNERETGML
Source text: With reference to FIG. 1, early event in receptor internalization is ligand-triggered association with beta-arrestin2. This process turns off receptor signaling. Enzyme complementation can be used to measure CMKLR1 association with beta-arrestin2. In this assay β-Galactosidase is split into two complementary enzyme fragments, one is attached to CMKLR1, the other to beta-arrestin2. If ligand interaction with CMKLR1 promotes its association with β-arrestin2, the enzyme fragments join and become active. An assay, such as PathHunter® CHO-K1 CMKLR1 β-Arrestin GPCR Assays (DiscoverX, Inc., Fremont, Calif.) can provide a method for monitoring activation of the CMKLR1 GPCR receptor through arrestin recruitment in live cells. CMKLR1 cells are engineered to co-express a ProLink (PK)-tagged GPCR and the Enzyme Acceptor (EA)-tagged β-Arrestin fusion proteins. Upon GPCR activation, the two enzyme fragments are brought together, forming an active β-Gal enzyme through Enzyme Fragment Complementation (EFC). A LOPAC (Library of Pharmacologically Active Compounds) library (Sigma-Aldrich, St. Louis, Mo.) was screened for inhibition of chemerin-triggered […]1 association with βARR. Three hits were obtained from a primary screen of LOPAC library. […] The assay was performed in both buffer (10% FBS) or 100% human serum.

huCMKLR1 [7] = target: T8, huCMKLR1; test: Inhibition of chemerin-triggered human CMKLR1/L1.2 cell migration; assay type: cell-based; set-up: expressed in transfected cells; host or cells: L1.2 cells; conditions: 1 nM chemerin
Procedure: 2-(alpha-Naphthoyl)ethyltrimethyl ammonium iodide (aNETA) was tested for inhibition of chemerin-triggered human CMKLR1/L1.2 cell migration. huCMKLR1/L1.2 ctx and 1 nM chemerin were used. The assay was performed in 0.5% BSA, buffer (10% FBS), or 100% human serum.

T2 sequence (P61073 whole entry): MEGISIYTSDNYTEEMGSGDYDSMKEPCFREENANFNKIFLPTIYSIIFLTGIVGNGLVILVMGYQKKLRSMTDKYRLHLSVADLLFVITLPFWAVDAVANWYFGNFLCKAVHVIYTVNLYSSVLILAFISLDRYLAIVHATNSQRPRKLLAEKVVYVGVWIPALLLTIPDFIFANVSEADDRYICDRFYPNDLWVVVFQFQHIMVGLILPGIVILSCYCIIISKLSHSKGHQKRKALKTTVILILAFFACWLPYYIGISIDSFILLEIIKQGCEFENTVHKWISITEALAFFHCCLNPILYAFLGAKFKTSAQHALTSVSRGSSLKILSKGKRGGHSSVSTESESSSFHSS
T4 sequence (P70658 whole entry): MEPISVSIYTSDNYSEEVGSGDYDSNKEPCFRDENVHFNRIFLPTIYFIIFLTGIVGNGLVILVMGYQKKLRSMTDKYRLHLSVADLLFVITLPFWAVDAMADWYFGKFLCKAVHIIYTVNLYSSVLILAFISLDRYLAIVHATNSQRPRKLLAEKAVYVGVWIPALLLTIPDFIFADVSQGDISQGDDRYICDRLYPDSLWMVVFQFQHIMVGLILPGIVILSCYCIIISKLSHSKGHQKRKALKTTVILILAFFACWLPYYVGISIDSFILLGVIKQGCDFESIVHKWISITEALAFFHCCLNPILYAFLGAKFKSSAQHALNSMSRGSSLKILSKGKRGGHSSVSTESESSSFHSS

- IC50 (mouse CMKLR1; 0.5% BSA): 9600 nM
- IC50 (mouse CMKLR1; 100% human serum): 1200 nM
- IC50 (mouse CMKLR1; buffer (10% FBS)): 1100 nM
- Inhibition of CXCR4-dependent MOLT-4 migration to CXCL12 (CXCR4 [1]): does not inhibit
- Inhibition of CCR9-dependent MOLT-4 migration to CCL25 (CCR9): does not inhibit
- Inhibition of CXCR4-dependent mouse splenocyte migration to CXCL12 (CXCR4 [2]): does not inhibit
- Inhibition of CCR7-dependent mouse splenocyte migration to CCL19 (CCR7): does not inhibit
- Inhibition of FPR-dependent mouse BM neutrophil chemotaxis to fMLP (FPR): does not inhibit
- Inhibition of C5aR-dependent mouse BM neutrophil chemotaxis to C5a (C5aR): does not inhibit
- IC50 (huCMKLR1 [6]; 100% human serum, huCMKLR1/βARR CHO cells, 7 nM chemerin, read-out: IC50, inhibition of chemerin-triggered huCMKLR1 association with βARR): 620 nM
- IC50 (huCMKLR1 [6]; buffer (10% FBS), huCMKLR1/βARR CHO cells, 7 nM chemerin, read-out: IC50, inhibition of chemerin-triggered huCMKLR1 association with βARR): 350 nM
- IC50 (huCMKLR1 [6]; in vitro cell-based bioassay, read-out: IC50, inhibition of chemerin mediated beta-arrestin2 association with CMKLR1): ~350 nM
- IC50 (huCMKLR1 [7]; 0.5% BSA): 1200 nM
- IC50 (huCMKLR1 [7]; 100% human serum): 1300 nM
- IC50 (huCMKLR1 [7]; buffer (10% FBS)): 1200 nM
SMILES: C[N+](C)(C)CCC(=O)c1cccc2ccccc12.[I-] [aNETA, 2-(alpha-naphthoyl)ethyltrimethyl ammonium iodide]
- In vitro cytotoxicity (annexin V / PI) [3]: does not appear to be acutely toxic
- Onset of EAE ([4]; 1 mg/kg daily): 17.8 days post-immunization
- Animals that developed EAE (disease incidence) ([4]; 3 mg/kg daily, 3/16): 19%
- Onset of EAE ([4]; 10 mg/kg daily): 26 days post-immunization
- Animals that developed EAE (disease incidence) ([4]; 10 mg/kg daily, 1/16): 7%
- Effect on onset of EAE ([4]; 10 mg/kg s.c. daily for 8 days, then every other day): significantly delayed
- Leukocyte infiltration of the CNS compared to vehicle ([5]; daily 10 mg/kg): fewer leukocytes present
- Leukocytes in the spleen compared to vehicle ([5]; daily 10 mg/kg and 3 mg/mg): more leukocytes present
